Reference: patent US10905757B2, “Cross-reactive T cell epitopes of HIV, SIV, and FIV for vaccines in humans and cats” (priority 2012, dated 2021)
Entries after “also recorded” stand apart in the source; their conditions may differ.

What was measured:
[1] = tested on: PBMC from SIV-infected rhesus macaques; assay type: cell-based, rhesus macaque; conditions: macaques R395, R397, R416, R422
[2] = tested on: PBMC from FIV-vaccinated cats; test: IFNγ ELISpot, PBMC from FIV-vaccinated cats (prototype vaccine, or prime plus MAP boosts); assay type: cell-based, cat; conditions: for IFNγ (SFU): prime 1x IWV, post-second MAP boost, peptide or MAP as culture stimulant, >50 positive
Text: (§1) Peptide Fp4-3 (left), peptide Fp14-1 (middle) and MAP1 [right] were culture stimulants. IL2 and IFNγ ELISpot results of >50 spot forming units (SFU/10^6 PBMC) and CFSE-proliferation of >2 are considered positive (bolded). The prime-boost vaccination induced IL2 responses in 3 of 4 cats and IFNγ response in one. Larger responses were induced by MAP1 than individual peptides in culture.

[3] = tested on: PBMC from FIV-vaccinated cats; test: IL2 ELISpot, PBMC from FIV-vaccinated cats (prototype vaccine, or prime plus MAP boosts); assay type: cell-based, cat; conditions: for IL2 (SFU): prime 1x IWV, post-second MAP boost, peptide or MAP as culture stimulant, >50 positive
Text: as §1

[4] = tested on: CD3+CD8+ T cells from FIV-vaccinated cats; test: CFSE-proliferation, CD8+ T cells from FIV-vaccinated cats; assay type: cell-based, cat; conditions: prime 1x IWV, post-second MAP boost, peptide or MAP as culture stimulant, >2 positive
Text: (§2) FIGS. 32A and 32B. T-cell proliferation responses to FIV p24 peptide pools by vaccinated cats. […] (FIG. 32A) and CD3^+CD8^+ (FIG. 32B) T-cell proliferation responses are shown for prototype FIV-vaccinated cats. The FIV vaccinated cats were semi-inbred cats with blue, dark red, and pink/green bars from different MHC-lineage colonies. The semi-inbred cats with light pink and green bars are from the same […] lineage. Pools Fp9 and Fp14 are recognized by both HIV^+ subjects and vaccinated cats (i.e., evolutionarily conserved [EC] epitopes) but pools Fp3 and Fp4 are not recognized by HIV^+ subjects (i.e., non-EC epitopes). The IFNγ responses of these cats were either low or below the cut-off threshold of 50 SFU/1×10^6 PBMC. The peptides that stimulated the most proliferation responses: non-EC peptide Fp4-3 in pool Fp4 and EC peptide Fp14-1 in pool Fp14 were used in in vivo study below (FIG. 34).
(§3) FIGS. 33A-33C. IFNγ and T-cell proliferation responses to Fp9 and Fp14 by the FIV-vaccinated cats and FIV-infected cats. The T cells or PBMC from 32 FIV-vaccinated cats were stimulated with either Fp9 or Fp14 and evaluated for proliferation (FIG. 33A) or IFNγ (FIG. 33B) responses. In addition, the PBMC from 32 FIV-infected cats at 22-52 weeks of infection and 20 HIV-1 p24-immunized cats were tested for IFNγ responses to the same peptide pools (FIG. 33B). Three types of laboratory cats were used in these studies: semi-inbred line 1 (Semi-Inbred 1), semi-inbred line 2 (Semi-Inbred 2), and outbred cats (Outbred) from laboratory cat vendors. Semi-inbred cats have been inbred for 3-5 generations with defined feline leukocyte antigen (FLA) alleles and are divided into two FLA haplotype lines. FIV vaccine consisted of prototype dual-subtype FIV vaccine (Coleman et al. 2014). The insert in each panel defines the numbers of each type of cats as well as vaccination (Vac.) or infection (Infect.) status. The number of cat responders used varies between the analyses performed for the individual Fp14 peptides (FIG. 33C, left for IFNγ and right for proliferation).
as §1

[5] = tested on: CD4+ T cells from FIV-vaccinated cats; test: CFSE-proliferation, CD4+ T cells from FIV-vaccinated cats; assay type: cell-based, cat; conditions: for Proliferation (CFSE^low) CD4^+ T cells: prime 1x IWV, post-second MAP boost, peptide or MAP as culture stimulant, >2 positive
Text: as §2, §3, §1

[6] = tested on: FIV infection of naïve cat PBMC; test: In vitro FIV enhancing/inhibitory (E/I) assay in PBMC from naïve SPF cats (RT titer); assay type: cell-based; conditions: PBMC from naïve cats
Description: FIG. 35. FIV-enhancing versus inhibitory epitopes on peptides and MAPs used in pilot MAP Study. […] Abbreviation: MAP1 plus MAP2 mix (MAP1+2).
FIG. 36A and 36B. FIV/HIV-1 enhancing versus inhibitory epitopes. […] Four epitope peptides were tested in an in vivo efficacy study with prototype vaccine prime and MAP boosts against pathogenic FIV challenge (see MAP section).
To test the possibility that Fp4-3 peptide may be enhancing FIV infection, we performed an in vitro FIV enhancing/inhibitory analysis with all MAP peptides and immunogens. […]. Since MAP2 consisted of peptides FRT3-3 and FRT3-4 with a natural overlap (FIG. 34), such overlap may have blocked the enhancing activity of peptide FRT3-3 while allowing the inhibitory activity of peptide FRT3-4. […] Moreover, none of the MAP vaccinated cats had early detection or enhancement in viral load compared to the control cats. Perhaps, the strong immunity generated by the MAP2 has blocked the enhancing activity of the MAP1 when boosted together (Group 1, Table 3). To test this possibility, in vitro study is currently undergoing to evaluate whether MAP2 can block FIV enhancing activity of MAP1. Furthermore, more cats will be vaccinated with MAP 1b and MAP2 to determine the levels of cytotoxins generated to peptides Fp14-1, FRT3-3 and FRT3-4. Since these peptides have induced CTL-associated cytotoxin expression in T cells from HIV^+ subjects (FIGS. 31A-31B; FIG. 5 in (Sanou et al. 2013)), these EC peptides may also mediate their in vivo effects by inducing anti-FIV specific CTL activity.
However, only peptide Fp4-3 correlated with the in vitro enhancement induced by MAP1. Since the in vitro E/I assay uses PBMC from naïve specific pathogen free (SPF) cats, it is unlikely that the in vitro stimulation of anti-FIV CTLs occurred in the culture and eliminated the infected cells. More likely, these enhancing or inhibitory peptides induced cytokines (enhancement: IFNγ, TNFα, GM-CSF; inhibition: IFNα, IL10), chemokines (inhibition: MIP1α, MIP1β, SDF-1, RANTES), or cellular restriction factors (inhibition: Trim5α, APOBEC3g) that either enhanced or inhibited FIV/HIV-1 infection. […] IFNγ is produced during inflammatory responses to HIV-1 infection (Ipp and Zemlin 2013). Thus, high levels of antiviral cellular immune responses are needed while minimizing both non-specific and viral-specific activation of CD4^+ T cells which can enhance viral replication (Lane 2010). Removal of the enhancing epitopes on FIV and HIV-1 immunogens will be critical to produce an effective HIV-1 vaccine. To accomplish this goal, we will design a vaccine based on antiviral epitopes directed at inducing viral-specific CD4^+ CTLs, CD8^+ CTLs and polyfunctional T cells, and identifying viral enhancing epitopes to remove from vaccine candidates.

[7] = cat DVB, boost-1 MAP1b, boost-2 MAP1b
[8] = cat DVD, boost-1 MAP1, boost-2 MAP1
[9] = cat QVQ, boost-1 MAP1b, boost-2 MAP1b
[10] = cat QVW, boost-1 MAP1, boost-2 MAP1

| Sequence | reactivity of PBMC from individual infected macaques [1] | IFNγ (SFU) [2, 7] | IFNγ (SFU) [2, 8] | IFNγ (SFU) [2, 9] | IFNγ (SFU) [2, 10] | IL2 (SFU) [3, 7] | IL2 (SFU) [3, 8] | IL2 (SFU) [3, 9] | IL2 (SFU) [3, 10] | Proliferation (CFSE^low) CD8^+ T cells [4, 7] | Proliferation (CFSE^low) CD8^+ T cells [4, 8] | Proliferation (CFSE^low) CD8^+ T cells [4, 9] | Proliferation (CFSE^low) CD8^+ T cells [4, 10] | Proliferation (CFSE^low) CD4^+ T cells [5, 7] | Proliferation (CFSE^low) CD4^+ T cells [5, 8] | Proliferation (CFSE^low) CD4^+ T cells [5, 9] | Proliferation (CFSE^low) CD4^+ T cells [5, 10] | effect on in vitro FIV infection [6] | other results |
| --- | --- | --- | --- | --- | --- | --- | --- | --- | --- | --- | --- | --- | --- | --- | --- | --- | --- | --- | --- |
| KWRKLVDFRELNKR [H3-4] | reacted |  |  |  |  |  |  |  |  |  |  |  |  |  |  |  |  |  |  |
| WRKLVDFRE [shorter peptide of HRT3] | reacted |  |  |  |  |  |  |  |  |  |  |  |  |  |  |  |  |  |  |
| PTDMATLIMAAPGCA [Fp4-3] |  | 0/0 SFU/10^6 PBMC | 132 SFU/10^6 PBMC | 0/0 SFU/10^6 PBMC | 21 SFU/10^6 PBMC | 0 SFU/10^6 PBMC | 95 SFU/10^6 PBMC | 0 SFU/10^6 PBMC | 0/0 SFU/10^6 PBMC | 0 | 6 | 0 | 0 | 0 | 3 | 1/1 | 0 | significant enhancement; also recorded: significantly enhanced | IFNγ responses in PBMC from FIV-vaccinated cats (in words) [2]: induced predominantly; also recorded: high levels; IL2 responses in PBMC from FIV-vaccinated cats (in words) [3]: induced predominantly; CD4+ T-cell proliferation in FIV-vaccinated cats (in words) [5]: induced predominantly |
| PTDLATLILAAPGSARVKRDQEQNTAEVKLYLK [MAP1, palmitated multiple antigenic peptide: Fp4-3/furin-sensitive-linker/Fp14-1] |  | [0] SFU/10^6 PBMC | [206] SFU/10^6 PBMC | [43] SFU/10^6 PBMC | [0] SFU/10^6 PBMC | [76] SFU/10^6 PBMC | [296] SFU/10^6 PBMC | [165] SFU/10^6 PBMC | [9] SFU/10^6 PBMC | [10] | [9] | [7] | [6] | [1] | [2] | [7] | [7] | significant enhancement |  |
